From ChEMBL document CHEMBL1201862, “PubChem BioAssay data set” (2004)
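Interpolation was linear, between the two tested concentrations surrounding the appropriate level; five concentrations were tested over 48 hours in 96-well plates. GI50 = concentration required for 50% inhibition of growth.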 Calls of active or inactive are those of the source. Rule as the data show it: active = GI50 up to about 1.1 µM and inactive = higher.

What was measured:
Assay in all cases: DTP human tumour cell line panel, 48 h
K562 = system: K562
HCC 2998 = system: HCC 2998
SK-OV-3 = system: SK-OV-3
COLO 205 = system: COLO 205
HL-60 = system: HL-60
UACC-257 = system: UACC-257
HOP-62 = system: HOP-62
SW-620 = system: SW-620
OVCAR-3 = system: OVCAR-3
UACC-62 = system: UACC-62
HT-29 = system: HT-29
M14 = system: M14
MOLT-4 = system: MOLT-4
NCI-H460 = system: NCI-H460
KM12 = system: KM12
RPMI-8226 = system: RPMI-8226
SK-MEL-28 = system: SK-MEL-28
UO-31 = system: UO-31
RXF 393 = system: RXF 393
NCI-H522 = system: NCI-H522

Measured: GI50

Cc1ccc(/N=N/C(=N\NC(=O)c2ccc(C)cc2)c2ccc(N(CCC#N)CCC#N)cc2C)cc1
inactive: K562 35.9 µM | HCC 2998 50.2 µM | SK-OV-3 65.6 µM | COLO 205 48.2 µM | HL-60 17.4 µM | UACC-257 27.9 µM | HOP-62 34.4 µM | SW-620 39 µM | OVCAR-3 26.2 µM | UACC-62 22.4 µM | HT-29 19.4 µM | M14 30 µM | MOLT-4 39.4 µM | NCI-H460 23.8 µM | KM12 12.2 µM | RPMI-8226 13 µM | SK-MEL-28 10.3 µM | UO-31 > 100 µM | RXF 393 44.8 µM

O=C1c2ccccc2C(=O)N1/N=C1/SC(=N\c2ccccc2)/C(=N/c2ccccc2)N1c1ccccc1
inactive: NCI-H522 97.7 µM | K562 > 60 µM | HCC 2998 > 48.5 µM | COLO 205 > 85.3 µM | HL-60 > 40.4 µM | UACC-257 > 100 µM | HOP-62 > 45.6 µM | SW-620 > 61.7 µM | OVCAR-3 > 100 µM | UACC-62 > 95.5 µM | HT-29 > 50 µM | M14 77.1 µM | MOLT-4 > 65.8 µM | NCI-H460 > 61.8 µM | KM12 > 38.8 µM | RPMI-8226 > 21.1 µM | SK-MEL-28 > 35.1 µM | UO-31 25.7 µM | RXF 393 4.47 µM

COC(=O)C(=O)Cc1nc2ccccc2o1
inactive: NCI-H522 > 100 µM | K562 > 100 µM | HCC 2998 > 100 µM | SK-OV-3 > 100 µM | HL-60 > 100 µM | UACC-257 > 100 µM | HOP-62 > 100 µM | OVCAR-3 > 100 µM | UACC-62 > 100 µM | HT-29 > 100 µM | M14 > 100 µM | MOLT-4 > 100 µM | NCI-H460 > 100 µM | KM12 > 100 µM | SK-MEL-28 > 100 µM | UO-31 > 100 µM | RXF 393 > 100 µM

Cc1cccc(C(C)C)c1NC(=O)/C(Cc1c([N+](=O)[O-])cccc1[N+](=O)[O-])=N/NC(=O)CC#N
inactive: NCI-H522 > 100 µM | K562 > 100 µM | HCC 2998 > 100 µM | SK-OV-3 > 100 µM | COLO 205 > 100 µM | HL-60 > 100 µM | SW-620 > 100 µM | OVCAR-3 > 100 µM | UACC-62 > 100 µM | HT-29 > 100 µM | M14 > 100 µM | MOLT-4 > 100 µM | NCI-H460 > 100 µM | KM12 > 100 µM | SK-MEL-28 > 100 µM | UO-31 > 100 µM | RXF 393 > 100 µM

C/C=C/C1=CC(=O)C(O)C1O (stereo unspecified)
inactive: NCI-H522 5.86 µM | K562 30.6 µM | HCC 2998 27.5 µM | SK-OV-3 40.7 µM | COLO 205 22 µM | HL-60 15.1 µM | UACC-257 29.4 µM | HOP-62 47.6 µM | SW-620 27.2 µM | OVCAR-3 24.5 µM | UACC-62 26.6 µM | HT-29 29.6 µM | MOLT-4 28 µM | NCI-H460 19.7 µM | KM12 15.3 µM | RPMI-8226 22.1 µM | SK-MEL-28 30.9 µM | UO-31 32.2 µM | RXF 393 15.1 µM

OCCCC(O)(c1ccccc1)c1ccccc1
inactive: NCI-H522 > 100 µM | K562 > 100 µM | HCC 2998 > 100 µM | SK-OV-3 > 100 µM | HL-60 > 100 µM | UACC-257 > 100 µM | HOP-62 > 100 µM | SW-620 > 100 µM | OVCAR-3 > 100 µM | UACC-62 > 100 µM | HT-29 > 100 µM | M14 > 100 µM | MOLT-4 > 100 µM | NCI-H460 > 100 µM | KM12 > 100 µM | RPMI-8226 > 100 µM | SK-MEL-28 > 100 µM | UO-31 > 100 µM | RXF 393 > 100 µM

CCCCCCCSc1nc2c(C(=O)OCC)ncn2c2ccccc12
inactive: K562 > 100 µM | HCC 2998 > 100 µM | SK-OV-3 > 100 µM | COLO 205 > 100 µM | HL-60 > 100 µM | UACC-257 > 100 µM | HOP-62 43.3 µM | SW-620 > 100 µM | OVCAR-3 > 100 µM | UACC-62 > 100 µM | HT-29 > 100 µM | M14 > 100 µM | MOLT-4 > 100 µM | NCI-H460 > 100 µM | KM12 > 100 µM | RPMI-8226 > 100 µM | SK-MEL-28 > 100 µM | UO-31 > 100 µM | RXF 393 > 100 µM

C=CC(C)C1(CCCOCc2ccccc2)C(=S)N2CCC3(CC24CCCC14)OCCO3 (stereo unspecified)
inactive: NCI-H522 7.31 µM | K562 4.84 µM | HCC 2998 56.1 µM | SK-OV-3 > 100 µM | COLO 205 28.5 µM | HL-60 1.9 µM | UACC-257 9.68 µM | SW-620 31.6 µM | OVCAR-3 6.76 µM | UACC-62 > 100 µM | HT-29 21.9 µM | MOLT-4 3.93 µM | NCI-H460 26.3 µM | KM12 12.9 µM | RPMI-8226 2.72 µM | SK-MEL-28 14.3 µM | UO-31 28.8 µM | RXF 393 6.46 µM

Cc1cc2cc3c(C)cc(=O)oc3c(C)c2o1 [TRIOXSALEN]
inactive: NCI-H522 > 100 µM | K562 > 100 µM | HCC 2998 > 100 µM | COLO 205 > 100 µM | HL-60 > 100 µM | UACC-257 > 100 µM | HOP-62 > 100 µM | SW-620 > 100 µM | OVCAR-3 > 100 µM | UACC-62 > 100 µM | HT-29 > 100 µM | M14 > 100 µM | MOLT-4 > 100 µM | NCI-H460 > 100 µM | KM12 > 100 µM | RPMI-8226 > 100 µM | SK-MEL-28 > 100 µM | UO-31 > 100 µM | RXF 393 > 100 µM

C=C1[C@@H]2CCC(C)(C)[C@H]1CCC(=O)[C@@H]2C(=O)OC
inactive: K562 > 100 µM | HCC 2998 > 100 µM | COLO 205 > 100 µM | HL-60 > 100 µM | UACC-257 > 100 µM | HOP-62 > 100 µM | SW-620 > 100 µM | OVCAR-3 > 100 µM | UACC-62 > 100 µM | HT-29 > 100 µM | M14 > 100 µM | MOLT-4 > 100 µM | NCI-H460 > 100 µM | RPMI-8226 > 100 µM | SK-MEL-28 > 100 µM | UO-31 > 100 µM | RXF 393 > 100 µM

N#CCc1c(F)c(F)c(F)c(F)c1F
inactive: NCI-H522 > 100 µM | K562 > 100 µM | HCC 2998 > 100 µM | SK-OV-3 > 100 µM | COLO 205 > 100 µM | HL-60 > 100 µM | UACC-257 > 100 µM | HOP-62 > 100 µM | SW-620 > 100 µM | UACC-62 > 100 µM | HT-29 > 100 µM | M14 > 100 µM | MOLT-4 > 100 µM | KM12 > 100 µM | RPMI-8226 > 100 µM | SK-MEL-28 > 100 µM | UO-31 > 100 µM | RXF 393 > 100 µM
